Test results: patent US10201580B2, “Methods of feeding animals liquid feed with soluble fiber and sugar alcohol” (PURINA ANIMAL NUTRITION LLC, priority 2004, dated 2019)

Tests used:
[1] = Further trial, calf milk replacer without psyllium, with or without sorbitol: weight gain, CMR consumption, starter intake, feed:gain; type: in vivo, Holstein bull calves; conditions: 6 g per day of sorbitol
From the text: (§1) A further trial was ran to determine what effect sorbitol without a dietary fiber would have on calves fed an intensified diet of calf milk replacer. Forty-six three to ten day old Holstein bull calves weighing approximately 90 to 100 pounds were fed an intensified diet of calf milk replacer. Twenty-four calves were fed a calf milk replacer without psyllium and without sorbitol and twenty-two calves were fed calf milk replacer without psyllium but with sorbitol. […] were fed 6 grams each per day of sorbitol. Data for parameters presented in the Tables above was analyzed using the general linear model (GLM) statistical procedure of SAS™. Statistical analysis software for a randomized complete block design that included both the particular feed regimen and the week of the test period in the model statement. The SAS™ statistical analysis software is available from SAS Institute, Inc. of Cary, N.C. Additionally, all data was analyzed to determine the mean of the data for each variable under consideration during the collection period for the particular data. Additionally, the PDiff function of the GLM statistical procedure was used to characterize the mean values of the data by providing for comparisons between mean data values for the calves of different treatments for particular test parameters or variables.

Holstein bull calves [2] = experiment: Further trial, calf milk replacer without psyllium, with or without sorbitol: scour score and scour days; type: in vivo; conditions: 6 g of sorbitol per day
From the text: as §1

Holstein bull calves [3] = experiment: Further trial, calf milk replacer without psyllium, with or without sorbitol: weaning scores; type: in vivo; conditions: 6 g per day of sorbitol; no psyllium
From the text: as §1

Holstein bull calves [4] = experiment: Further trial, calf milk replacer without psyllium, with or without sorbitol: respiratory scores; type: in vivo; conditions: 6 g per day of sorbitol; no psyllium
From the text: as §1

## OC[C@@H](O)[C@@H](O)[C@H](O)[C@@H](O)CO [sorbitol]
[1]
  difference in average feed:gain (feed efficiency) vs calves fed no sorbitol: no statistically significant difference
  difference in calf milk replacer consumption vs calves fed no sorbitol: no statistically significant difference
  difference in starter feed intake vs calves fed no sorbitol: no statistically significant difference
  difference in total weight gain vs calves fed no sorbitol: no statistically significant difference
Holstein bull calves [2]
  difference in scour score vs calves fed no sorbitol: no statistically significant different
  difference in scoured days vs calves fed no sorbitol: no statistically significant different
Holstein bull calves [3]
  difference in weaning scores vs calves not fed any sorbitol: no statistically significant difference
Holstein bull calves [4]
  difference in respiratory scores vs calves not fed any sorbitol: no statistically significant difference
